# According to patent US20200148803A1, “POLYMERIZABLE MULTIFUNCTIONAL ANTIMICROBIAL QUATERNARY AMMONIUM MONOMERS, METHODS OF SYNTHESIS, AND USES THEREOF” (ADA Foundation, priority 2018, published 2020):
# Legend:
# [1] = Degree of vinyl conversion (DVC) by near infra-red spectra of copolymer beams; format: physicochemical
# Experimental: (§1) Experimental resin (UPE) was formulated from the commercially available monomers urethane dimethacrylate (UDMA, 50.91% w/w), polyethylene glycol extended urethane dimethacrylate (PEG-U, 18.18% w/w), and ethyl 2-(hydroxymethyl)acrylate (EHMA, 30.91% w/w). A conventional visible light initiator system comprised of camphorquinone (0.2% w/w) and ethyl-4-N,N-dimethylamino benzoate (4EDMAB, 0.8% w/w) was utilized. […] Copolymer specimens (beams) were prepared by depositing UPE (UPE resin control) and AM-UPE resins into glass molds (2 mm×2 mm×25 mm) and photopolymerizing them with a dental curing light (Triad 2000, Dentsply, Charlotte, N.C., USA) for 2 minutes from two sides. Copolymer specimens (pellets) were prepared by depositing UPE and AM-UPE resins into a stainless-steel mold (1 mm×16 mm), sandwiched between two sheets of Mylar film and two glass slides and photopolymerized in the same manner as the beam samples. Degree of vinyl conversion (DVC) of UPE and AM-UPE resins was determined utilizing beam samples by collecting the near infra-red (NIR) spectra (Nexus 670, ThermoFisher, Madison, Wis., USA) before and 24 h after polymerization and calculating the reduction in absorption band at 6165 cm^−1 corresponding to the vinyl (C═C—H) overtone signal. By maintaining a constant specimen thickness, a need for an invariant internal standard was eliminated. The DVC was calculated as: […]
# (§2) where Area(polymer) and Area(monomer) correspond to the areas under 6165 cm^−1 peaks after and before the polymerization, respectively. After DVC analysis, flexural strength (FS) and elastic modulus (E) of beam specimen were determined employing the Universal Testing Machine (Instron 5500R, Instron Corp., Canton, Mass., USA). The load was applied (at cross-head speed of 1 mm/min) to the center of a specimen positioned on a test device with supports 20 mm apart. The FS and E of the specimens (three replicates/experimental group) was calculated as instructed in the ISO4049:2009 document. Changes in hydrophilicity/hydrophobicity of UPE resins due to the introduction of AM monomers were assessed on pellet specimen by sessile drop contact angle (CA) measurements (drop shape analyzer DSA100, Krüss GmbH, Hamburg, Germany). Following the deposition of 4 μL water droplets on the resin pellets, the pellets were imaged after 1 min resting time with a camera at the points of intersection (three-phase contact points) between the drop contour and the projection of the surface (baseline). The CA water values were calculated employing the Krüss Advance software. At least four repetitive measurements were performed in each group. Analysis of variance (ANOVA) and Newman-Keuls multiple paired comparisons (at 95% confidence level) were used to analyze the experimental data as a function of resin composition and establish a statistical significance of differences between the experimental groups (WINKS 7.0.9, TexaSoft, Cedar Hills, Tex., USA).
# [2] = Sessile drop water contact angle (CA) on resin pellets; format: physicochemical
# Experimental: as §1, §2
# [3] = test system: mouse subcutaneous connective tissue fibroblasts (NCTC clone 929, CCL1); test: Direct contact cytotoxicity, LIVE/DEAD viability, CCL1 cells; format: cell-based
# [4] = test system: human gingival fibroblasts (HGF); test: Direct contact cytotoxicity, LIVE/DEAD viability, HGF cells; format: cell-based; settings: for effect of exposure time on HGF live cells, difference of means: 24 h vs 72 h, regardless of concentration; for effect of monomer concentration on HGF cell viability: two-fold serial dilutions, 24 h and 72 h
# Experimental: (§3) Immortalized human gingival fibroblasts (HGF) were purchased from Applied Biological Materials, Inc. (Richmond, British Columbia, Canada). […] For experiments, cells were obtained from a subconfluent stock culture.
# (§4) Direct contact cytotoxicity testing was conducted as previously described^7, 8. Briefly, cells were exposed to two-fold serial dilutions of AMadh series monomers or AMsil series monomers to approximate the maximum possible exposure, (Table 9). Table 9 illustrates biocompatibility testing using maximum possible monomer exposure (mmol/L), assuming 7% mass fraction in the restorative with a maximum of 2% leaching. To account for multiplicity and variable size of restorations, a two- and four-fold greater dilution was also included in the testing. After 24 and 72 h, cells were assessed for cell viability using the LIVE/DEAD® Viability/Cytotoxicity kit (Life Technologies, Corp., Grand Island, N.Y.). Cellular metabolic activity was subsequently assessed using the CellTiter® AQueous One Solution Reagent (Promega, Corp., Madison, Wis.). Negative controls were without the novel monomer and/or cells. Mean+standard error was obtained from five independent replicates tested in triplicate.
# CCL1 cells = test: Cellular metabolic activity (CellTiter AQueous One Solution Reagent), CCL1 cells; format: cell-based; settings: for effect of monomer concentration on CCL1 metabolic activity: two-fold serial dilutions, 24 h and 72 h
# [5] = test system: human gingival fibroblasts (HGF); test: Cellular metabolic activity (CellTiter AQueous One Solution Reagent), HGF cells; format: cell-based; settings: for effect on metabolic activity of HGF cells: two-fold serial dilutions, 24 h and 72 h
# Experimental: as §3, §4
# [6] = two-fold serial dilutions, 24 h and 72 h
structure (smiles),measurement,setting,value
"C=C(C)C(=O)OCC[N+](C)(C)CCCCCC(=O)O.[Br-] [AMadh1, 5-carboxy-N-(2-(methacryloyloxy)ethyl)-N,N-dimethylpentan-1-aminium bromide]",increase of DVC relative to UPE resin control,[1]; 10 mass percent in UPE resin,2%
same,increase of DVC relative to UPE resin control,[1]; 20 mass percent in UPE resin,3%
same,effect on hydrophobic-hydrophilic properties of the copolymer,[2]; 10 and 20 mass percent in UPE resin,did not alter the hydrophobic-hydrophilic properties
same,decrease of mean number of live CCL1 cells compared to all lower concentrations,"[3]; 10.6 mmol/L, 72 h exposure",≤ 2.5 fold
same,effect of monomer concentration on CCL1 cell viability,"[3]; 24 h exposure, ≤10.6 mmol/L",insignificant
same,effect of monomer concentration on CCL1 cell viability,[3]; [6],exerted a main effect
same,dead HGF cells,"[4]; 0.08 mmol/L, 24 h",102.1 ± 0.9 % control
same,live HGF cells,"[4]; 0.08 mmol/L, 24 h",92.8 ± 11.3 % control
same,dead HGF cells,"[4]; 0.08 mmol/L, 72 h",99.5 ± 8.0 % control
same,live HGF cells,"[4]; 0.08 mmol/L, 72 h",121.6 ± 12.6 % control
same,dead HGF cells,"[4]; 0.17 mmol/L, 24 h",99.1 ± 1.7 % control
same,live HGF cells,"[4]; 0.17 mmol/L, 24 h",77.3 ± 15.9 % control
same,dead HGF cells,"[4]; 0.17 mmol/L, 72 h",98.8 ± 9.1 % control
same,live HGF cells,"[4]; 0.17 mmol/L, 72 h",95.1 ± 14.4 % control
same,dead HGF cells,"[4]; 0.33 mmol/L, 24 h",103.5 ± 3.7 % control
same,live HGF cells,"[4]; 0.33 mmol/L, 24 h",110.4 ± 9.7 % control
same,dead HGF cells,"[4]; 0.33 mmol/L, 72 h",102.0 ± 12.8 % control
same,live HGF cells,"[4]; 0.33 mmol/L, 72 h",116.8 ± 12.3 % control
same,dead HGF cells,"[4]; 0.66 mmol/L, 24 h",101.5 ± 2.5 % control
same,live HGF cells,"[4]; 0.66 mmol/L, 24 h",107.4 ± 4.7 % control
same,dead HGF cells,"[4]; 0.66 mmol/L, 72 h",92.1 ± 8.7 % control
same,live HGF cells,"[4]; 0.66 mmol/L, 72 h",133.0 ± 8.4 % control
same,dead HGF cells,"[4]; 1.33 mmol/L, 24 h",110.9 ± 7.1 % control
same,live HGF cells,"[4]; 1.33 mmol/L, 24 h",121.8 ± 8.2 % control
same,dead HGF cells,"[4]; 1.33 mmol/L, 72 h",89.5 ± 8.9 % control
same,live HGF cells,"[4]; 1.33 mmol/L, 72 h",107.6 ± 6.9 % control
same,dead HGF cells,"[4]; 2.65 mmol/L, 24 h",100.4 ± 1.0 % control
same,live HGF cells,"[4]; 2.65 mmol/L, 24 h",111.7 ± 10.0 % control
same,dead HGF cells,"[4]; 2.65 mmol/L, 72 h",104.0 ± 17.1 % control
same,live HGF cells,"[4]; 2.65 mmol/L, 72 h",107.8 ± 4.0 % control
same,dead HGF cells,"[4]; 5.3 mmol/L, 24 h",102.7 ± 2.6 % control
same,live HGF cells,"[4]; 5.3 mmol/L, 24 h",108.8 ± 14.8 % control
same,dead HGF cells,"[4]; 5.3 mmol/L, 72 h",88.9 ± 6.8 % control
same,live HGF cells,"[4]; 5.3 mmol/L, 72 h",130.5 ± 9.2 % control
same,dead HGF cells,"[4]; 10.6 mmol/L, 24 h",100.9 ± 1.7 % control
same,live HGF cells,"[4]; 10.6 mmol/L, 24 h",92.4 ± 10.8 % control
same,dead HGF cells,"[4]; 10.6 mmol/L, 72 h",90.3 ± 11.6 % control
same,live HGF cells,"[4]; 10.6 mmol/L, 72 h",103.7 ± 7.8 % control
same,"effect of exposure time on HGF live cells, difference of means",[4],10.4%
same,effect of monomer concentration on HGF cell viability,[4],monomer concentration affected
same,"number of live HGF cells in monomer-treated groups, median of least square means","[4]; ≤10.6 mmol/L, 24 h or 72 h, % control",111.7%
same,effect of monomer concentration on CCL1 metabolic activity,CCL1 cells,A main effect
same,effect on metabolic activity of HGF cells,[5],Neither AMadh1 concentration nor time of exposure significantly affected the metabolic activity
"C=C(C)C(=O)OCC[N+](C)(C)CCCCCCCCCCC(=O)O.[Br-] [AMadh2, 10-carboxy-N-(2-(methacryloyloxy)ethyl)-N,N-dimethyldecan-1-aminium bromide]",effect on hydrophobic-hydrophilic properties of the copolymer,[2]; 10 mass percent in UPE resin,a shift towards the lower CA values
same,reduction of water CA relative to UPE resin control,[2]; 10 mass percent in UPE resin,18 °
same,effect on hydrophobic-hydrophilic properties of the copolymer,[2]; 20 mass percent in UPE resin,did not alter the hydrophobic-hydrophilic properties
same,"percentage of live CCL1 cells, fold lower compared to concentrations ≤4.4 mmol/L","[3]; 8.8 mmol/L, 72 h exposure",at least 10 fold
same,"least squares mean of live CCL1 cells, fold lower than at lower concentrations","[3]; 8.8 mmol/L, independent of time",approx. 2 fold
same,percent live CCL1 cells compared to control group (no monomer),[3]; ≤2.2 mmol/L (24 h) and ≤0.28 mmol/L (72 h),increased
same,effect of concentration on the number of dead CCL1 cells,[3]; ≤8.8 mmol/L,not statistically different
same,"effect of exposure time on HGF live cells, difference of means",[4],~16%
same,effect of monomer concentration on HGF cell viability,[4],no significant effect
same,CCL1 cell metabolic activity,"CCL1 cells; 24 h, 8.8 mm/L",reduced
same,CCL1 cell metabolic activity,CCL1 cells; 72 h,markedly reduced
same,effect of monomer concentration on CCL1 metabolic activity,CCL1 cells,exerted an effect
same,"time of exposure decreased HGF metabolic activity, difference of means",[5]; 24 h vs 72 h,19.01
same,effect on metabolic activity of HGF cells,[5],not affected by the level of AMadh2
"C=C(C)C(=O)OCC[N+](C)(C)CCCCCCCCCCC[Si](OC)(OC)OC.[Br-] [AMsil2, N-(2-(methacryloyloxy)ethyl)-N,N-dimethyl-11-(trimethoxysilyl)undecan-1-aminium bromide]",DVC compared to UPE resin control,[1]; 10 mass percent in UPE resin,did not change the copolymer DVC
same,reduction of DVC relative to UPE resin control,[1]; 20 mass percent in UPE resin,12.9%
same,CA,[2]; 10 mass % monomer in UPE resin,37.4±9.2 °
same,reduction of CA relative to UPE resin control,[2]; 10 mass % monomer in UPE resin,38%
same,effect on hydrophobic-hydrophilic properties of the copolymer,[2]; 10 mass percent in UPE resin,a shift towards the lower CA values
same,effect on hydrophobic-hydrophilic properties of the copolymer,[2]; 20 mass percent in UPE resin,maintained the hydrophobic-hydrophilic balance
same,effect of monomer concentration on CCL1 cell viability,[3]; [6],exerted a main effect
same,"percentage of live CCL1 cells, fold lower compared to concentrations ≤0.91 mmol/L","[3]; ≥1.82 mmol/L, 72 h exposure",3 to 4 fold
same,live CCL1 cells compared to lower concentrations,"[3]; ≥3.64 mmol/L, 24 h exposure",lower
same,"effect of exposure time on HGF live cells, difference of means",[4],~23%
same,effect of monomer concentration on HGF cell viability,[4],exhibited a concentration effect
same,reduction of number of live HGFs compared to the control group,[4]; ≥1.82 mmol/L,more than 3 fold
same,effect of monomer concentration on CCL1 metabolic activity,CCL1 cells,exerted an effect
same,effect on metabolic activity of HGF cells,[5],exhibited an effect
